Where two headings read alike, the source gives them in different places.
Biological target: T1, human histamine H3 receptor (Homo sapiens, UniProt Q9Y5N1)
T1 construct: expressed in transfected cells
Test: H3 cell based functional assay (cAMP, β-lactamase reporter gene)
Description: Compounds were evaluated using a cell based functional assay measuring cAMP through β-lactamase reporter gene activity. A stable cell line was generated from HEK-293 cells expressing a CRE β-lactamase reporter gene and transfected with human histamine H3 receptor cDNA. Cells were seeded at a density of 500,000 cells/ml, and grown overnight in MEM (Invitrogen) supplemented with 1% dialysed FBS (Sigma), 2 mM glutamine (Sigma), 1 mM sodium pyruvate (Sigma), 0.1 mM non essential amino acids (Invitrogen) and 25 mM HEPES (Sigma) in poly D lysine coated 384 well plates (BD Biosciences). […] Cells were incubated for 15 minutes plus/minus compound and their ability to permit 10 μM forskolin-stimulated cAMP synthesis in the presence of 1 nM imetit was measured as described above.

[1] = functional Ki from IC50 by Cheng-Prussoff, HEK-293 CRE β-lactamase cells, 10 μM forskolin, 1 nM imetit, read-out: Ki (H3 cell based assay - nM)

T1 sequence (Q9Y5N1 whole entry): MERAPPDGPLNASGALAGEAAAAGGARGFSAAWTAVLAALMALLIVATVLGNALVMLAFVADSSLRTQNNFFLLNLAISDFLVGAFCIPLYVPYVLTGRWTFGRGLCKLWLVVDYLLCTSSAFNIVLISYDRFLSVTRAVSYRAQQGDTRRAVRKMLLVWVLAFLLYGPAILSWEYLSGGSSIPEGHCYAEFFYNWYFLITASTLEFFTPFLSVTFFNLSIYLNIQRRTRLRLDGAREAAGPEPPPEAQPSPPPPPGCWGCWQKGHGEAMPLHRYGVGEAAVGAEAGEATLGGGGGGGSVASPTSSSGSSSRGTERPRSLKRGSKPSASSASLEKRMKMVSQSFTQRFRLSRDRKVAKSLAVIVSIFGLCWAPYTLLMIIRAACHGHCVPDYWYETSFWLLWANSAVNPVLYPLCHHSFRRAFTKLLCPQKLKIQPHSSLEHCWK

Row | SMILES | Ki [1] [nM] | Ki [nM]
1 | CN(C)C(=O)C1(c2ccc(OC3CCN(C4CCC4)CC3)cc2)CCOCC1 [Example 155, 4-{4-[(1-cyclobutylpiperidin-4-yl)oxy]phenyl}-N,N-dimethyltetrahydro-2H-pyran-4-carboxamide] | 1 | –
2 | CCN(C)C(=O)C1(c2ccc(OCCCN3CCCC3)cc2)CCOCC1 [Example 190, N-ethyl-N-methyl-4-[4-(3-pyrrolidin-1-ylpropoxy)phenyl]tetrahydro-2H-pyran-4-carboxamide] | 2.4 | –
3 | c1ccc(C2(c3ccc(OCCCN4CCCC4)cc3)CCOCC2)nc1 [Example 205, 2-{4-[4-(3-pyrrolidin-1-ylpropoxy)phenyl]tetrahydro-2H-pyran-4-yl}-pyridine] | 5.8 | –
4 | CCNC(=O)C1(c2ccc(OC3CCN(C4CCC4)CC3)cc2)CCOCC1 [Example 160, 4-{4-[(1-cyclobutylpiperidin-4-yl)oxy]phenyl}-N-ethyltetrahydro-2H-pyran-4-carboxamide] | 1.5 | –
5 | CC(C)N1CCC(Oc2ccc(C3(CNc4ccnnc4)CCOCC3)cc2)CC1 [Example 267, N-[(4-{4-[(1-isopropylpiperidin-4-yl)oxy]phenyl}tetrahydro-2H-pyran-4-yl)methyl]pyridazin-4-amine] | – | 5.8
6 | O=C(N1CCCCC1)C1(c2ccc(OCCCN3CCCC3)cc2)CCOCC1 [Example 188, 1-({4-[4-(3-pyrrolidin-1-ylpropoxy)phenyl]-tetrahydro-2H-pyran-4-yl}carbonyl)piperidine] | 6.8 | –
7 | CC(C)N1CCC(Oc2ccc(C3(C(=O)N(C)C)CCOCC3)cc2)CC1 [Example 133, 4-{4-[(1-isopropylpiperidin-4-yl)oxy]phenyl}-N,N-dimethyltetrahydro-2H-pyran-4-carboxamide] | 12.4 | –
8 | CN(C)C(=O)C1(c2ccc(OCCCN3CCCC3)cc2)CCOCC1 [Example 191, N,N-dimethyl-4-[4-(3-pyrrolidin-1-ylpropoxy)-phenyl]tetrahydro-2H-pyran-4-carboxamide] | 10.3 | –
9 | O=C(N1CCC1)C1(c2ccc(OCCCN3CCCC3)cc2)CCOCC1 [Example 189, 1-(3-{4-[4-(azetidin-1-ylcarbonyl)tetrahydro-2H-pyran-4-yl]phenoxy}propyl)pyrrolidine] | 14.3 | –
10 | CNC(=O)C1(c2ccc(OC3CCN(C4CCC4)CC3)cc2)CCOCC1 [Example 156, 4-{4-[(1-cyclobutylpiperidin-4-yl)oxy]phenyl}-N-methyltetrahydro-2H-pyran-4-carboxamide] | 2 | –
11 | CN(C)CC1(c2ccc(OCCCN3CCCC3)cc2)CCOCC1 [Example 29, Dimethyl-{4-[4-(3-pyrrolidin-1-ylpropoxy)phenyl]-tetrahydro-pyran-4-ylmethyl}amine] | 0.4 | –
12 | c1ccc2c(c1)ncn2CC1(c2ccc(OCCCN3CCCC3)cc2)CCOCC1 [Example 196] | 0.6 | –
13 | Cc1csc(C2(c3ccc(OCCCN4CCCC4)cc3)CCOCC2)n1 [Example 136, 4-methyl-2-[4-(4-(3-pyrrolidin-1-ylpropoxy)phenyl)tetrahydro-2H-pyran-4-yl]-1,3-thiazole] | 3.9 | –
14 | O=C(N1CCCC1)C1(c2ccc(OCCCN3CCCC3)cc2)CCOCC1 [Example 187, 1-(3-{4-[4-(pyrrolidin-1-ylcarbonyl)tetrahydro-2H-pyran-4-yl]phenoxy}propyl)pyrrolidine] | 7.3 | –

Further lines, with some results ahead:

Row | Ki [1] [nM] | SMILES | Ki [nM]
15 | 4.6 | c1cc(NCC2(c3ccc(OCCCN4CCCC4)cc3)CCOCC2)cnn1 [Example 250, N-({4-[4-(3-pyrrolidin-1-ylpropoxy)phenyl]tetrahydro-2H-pyran-4-yl}methyl)pyridazin-4-amine] | –
16 | 3.9 | c1cc2c(cn1)ncn2CC1(c2ccc(OCCCN3CCCC3)cc2)CCOCC1 [Example 247, 1-({4-[4-(3-pyrrolidin-1-ylpropoxy)phenyl]tetrahydro-2H-pyran-4-yl}methyl)-1H-imidazo[4,5-c]pyridine] | –
17 | 0.3 | c1cnc2c(c1)ncn2CC1(c2ccc(OCCCN3CCCC3)cc2)CCOCC1 [Example 248, 3-({4-[4-(3-pyrrolidin-1-ylpropoxy)phenyl]tetrahydro-2H-pyran-4-yl}methyl)-3H-imidazo[4,5-b]pyridine] | –
18 | 2.6 | CN(C)CC1(c2ccc(OCCCN3CCOCC3)cc2)CCOCC1 [Example 213, N,N-dimethyl-1-{4-[4-(3-morpholin-4-ylpropoxy)phenyl]tetrahydro-2H-pyran-4-yl}methanamine] | –
19 | 12.9 | c1ncc(C2(c3ccc(OCCCN4CCCC4)cc3)CCOCC2)o1 [Example 206, 5-{4-[4-(3-pyrrolidin-1-ylpropoxy)phenyl]tetrahydro-2H-pyran-4-yl}-1,3-oxazole] | –
20 | 10.8 | c1cc(C2(Cn3cnnc3)CCOCC2)ccc1OCCCN1CCCC1 [Example 272, 4-({4-[4-(3-pyrrolidin-1-ylpropoxy)phenyl]tetrahydro-2H-pyran-4-yl}methyl)-4H-1,2,4-triazole] | –
21 | 9.7 | c1cnc2ncn(CC3(c4ccc(OCCCN5CCCC5)cc4)CCOCC3)c2c1 [Example 249, 1-({4-[4-(3-pyrrolidin-1-ylpropoxy)phenyl]tetrahydro-2H-pyran-4-yl}methyl)-1H-imidazo[4,5-b]pyridine] | –
22 | 2.2 | CC(C)N1CC(COc2ccc(C3(CN4CCOCC4)CCOCC3)cc2)C1 [Example 220, 4-[(4-{4-[(1-isopropylazetidin-3-yl)methoxy]phenyl}tetrahydro-2H-pyran-4-yl)methyl]morpholine] | –
23 | 9.7 | c1c[nH]c(C2(c3ccc(OCCCN4CCCC4)cc3)CCOCC2)n1 [Example 266, 2-{4-[4-(3-pyrrolidin-1-ylpropoxy)phenyl]tetrahydro-2H-pyran-4-yl}-1H-imidazole] | –
24 | 6.2 | c1cc(C2(c3ccc(OCCCN4CCCC4)cc3)CCOCC2)ncn1 [Example 276, 4-{4-[4-(3-pyrrolidin-1-ylpropoxy)phenyl]tetrahydro-2H-pyran-4-yl}pyrimidine] | –
25 | 6.5 | c1cc(C2(CN3CCOCC3)CCOCC2)ccc1OCCCN1CCCOCC1 [Example 268, 4-(3-{4-[4-(morpholin-4-ylmethyl)tetrahydro-2H-pyran-4-yl]phenoxy}propyl)-1,4-oxazepane] | –
26 | 1.3 | CNCC1(c2ccc(OCCCN3CCOCC3)cc2)CCOCC1 [Example 254, N-methyl-1-{4-[4-(3-morpholin-4-ylpropoxy)phenyl]tetrahydro-2H-pyran-4-yl}methanamine] | –
